Results: article PMC12029836, “Phytotoxicity, Cytotoxicity, and Antimicrobial Activity of Triethanolammonium Amino Acids Salts” (Molecules, 2025)
Where “and” joins values, the source holds several entries; their conditions need not be identical. Equal values may be shown once. Read-outs that look alike come from different tables or passages of the source.

Assays:
L929 fibroblasts = assay: Mammalian cell cytotoxicity screening, resazurin viability; format: cell-based, mouse
S. aureus ATCC 6538 = assay: Antimicrobial activity, broth microdilution MIC/MBC; format: cell-based, Staphylococcus aureus; conditions: nd—not detected; for MIC (%): S. aureus ATCC 6538, 24 h at 37 °C, at least 90% growth inhibition
E. coli ATCC 8739 = assay: as above; format: cell-based, Escherichia coli; conditions: nd—not detected; for MIC (%): E. coli ATCC 8739, 24 h at 37 °C, at least 90% growth inhibition; for MBC (%): E. coli ATCC 8739
C. albicans ATCC 10231 = assay: as above; format: cell-based, Candida albicans; conditions: nd—not detected; for MIC (%): C. albicans ATCC 10231, 24 h at 37 °C, at least 90% growth inhibition
[1] = test system: Lepidium sativum L. seeds; conditions: 24 h incubation, mean(±SD), n = 3
[2] = test system: Lepidium sativum L. roots; conditions: 24 h incubation, mean(±SD), n = 3
[3] = 0.01% (w/w) compound in the medium
[4] = 0.03% (w/w) compound in the medium
[5] = 0.05% (w/w) compound in the medium
[6] = 0.10% (w/w) compound in the medium
[7] = 0.30% (w/w) compound in the medium
[8] = 0.50% (w/w) compound in the medium
[9] = 1.00% (w/w) compound in the medium
[10] = 2.00% (w/w) compound in the medium
[11] = 3.00% (w/w) compound in the medium
[12] = 4.00% (w/w) compound in the medium
[13] = 5.00% (w/w) compound in the medium

SMILES | MIC (%) (E. coli ATCC 8739) | MIC (%) (C. albicans ATCC 10231) | Inhibition of the Lepidium sativum seeds germination (ISG, %) [1, 3] | Inhibition of the Lepidium sativum seeds germination (ISG, %) [1, 4] | Inhibition of the Lepidium sativum seeds germination (ISG, %) [1, 5] | Inhibition of the Lepidium sativum seeds germination (ISG, %) [1, 6] | Inhibition of the Lepidium sativum seeds germination (ISG, %) [1, 7] | Inhibition of the Lepidium sativum seeds germination (ISG, %) [1, 8] | Inhibition of the Lepidium sativum seeds germination (ISG, %) [1, 9] | Inhibition of the Lepidium sativum seeds germination (ISG, %) [1, 10] | Inhibition of the Lepidium sativum seeds germination (ISG, %) [1, 12] | Inhibition of the root growth in pregerminated Lepidium sativum seeds (IRG, %) [2, 3] | Inhibition of the root growth in pregerminated Lepidium sativum seeds (IRG, %) [2, 4] | Inhibition of the root growth in pregerminated Lepidium sativum seeds (IRG, %) [2, 5] | Inhibition of the root growth in pregerminated Lepidium sativum seeds (IRG, %) [2, 6] | Inhibition of the root growth in pregerminated Lepidium sativum seeds (IRG, %) [2, 7] | Inhibition of the root growth in pregerminated Lepidium sativum seeds (IRG, %) [2, 8] | Inhibition of the root growth in pregerminated Lepidium sativum seeds (IRG, %) [2, 10] | Inhibition of the root growth in pregerminated Lepidium sativum seeds (IRG, %) [2, 11] | Inhibition of the root growth in pregerminated Lepidium sativum seeds (IRG, %) [2, 12] | further results
CC(N)C(=O)O.OCCN(CCO)CCO [[TEA][Ala]] | 3.75 | 1.88 | 0.0(±1.2) % | 0.0(±0.8) % | 0.0(±1.2) % | 0.0(±0.8) % | 0.0(±0.5) % | 9.4(±1.4) % | 11.8(±1.6) % | 17.7(±0.8) % | 88.3(±1.3) % | 0.0(±0.0) % | 0.0(±0.0) % | 14.8(±1.5) % | 19.7(±1.4) % | 27.9(±1.2) % | 36.1(±1.2) % | 67.2(±1.0) % | 77.6(±0.6) % | 79.3(±0.6) % | ED20 (L929 fibroblasts; 24h exposure): 0.54±0.06%; ED50 (L929 fibroblasts; 24h exposure): 0.57±0.04%; ED80 (L929 fibroblasts; 24h exposure): 0.59±0.11%; ED20 (L929 fibroblasts; 48h exposure): 0.25±0.03%; ED50 (L929 fibroblasts; 48h exposure): 0.42±0.02%; ED80 (L929 fibroblasts; 48h exposure): 0.63±0.03%; MIC (%) (S. aureus ATCC 6538): 7.50%; MBC (%) (E. coli ATCC 8739): 7.50%; Inhibition of the Lepidium sativum seeds germination (ISG, %) [1, 11]: 64.7(±0.8) %; Inhibition of the Lepidium sativum seeds germination (ISG, %) [1, 13]: 100.0(±0.5) %; Inhibition of the root growth in pregerminated Lepidium sativum seeds (IRG, %) [2, 9]: 55.2(±0.8) %; Inhibition of the root growth in pregerminated Lepidium sativum seeds (IRG, %) [2, 13]: 89.7(±0.5) %
N=C(N)NCCC[C@H](N)C(=O)O.OCCN(CCO)CCO [[TEA][Arg]] | 3.75 | 0.94 | 0.0(±0.0) % | 0.0(±0.0) % | 0.0(±0.0) % | 0.0(±0.0) % | 1.2(±0.8) % | 5.5(±0.5) % | 15.5(±0.5) % | 25.5(±2.1) % | 58.2(±1.2) % | 9.0(±1.9) % | 20.6(±1.8) % | 31.2(±1.9) % | 41.9(±1.3) % | 53.8(±1.3) % | 56.5(±1.4) % | 74.4(±0.7) % | 84.7(±0.6) % | 93.7(±0.5) % | MIC (%) (S. aureus ATCC 6538): 3.75%; MBC (%) (S. aureus ATCC 6538; S. aureus ATCC 6538): 3.75%; MBC (%) (E. coli ATCC 8739): 3.75%; Inhibition of the Lepidium sativum seeds germination (ISG, %) [1, 11]: 32.7%; Inhibition of the root growth in pregerminated Lepidium sativum seeds (IRG, %) [2, 9]: 65.4(±1.0) %; Inhibition of the root growth in pregerminated Lepidium sativum seeds (IRG, %) [2, 13]: 98.3(±0.3) %
N[C@@H](CC(=O)O)C(=O)O.OCCN(CCO)CCO [[TEA][Asp]] | 7.50 | 15 | 0.0(±0.0) % | 0.0(±0.0) % | 0.0(±0.0) % | 0.0(±0.0) % | 0.0(±0.0) % | 0.0(±0.0) % | 0.0(±0.0) % | 0.0(±0.0) % | 16.2(±1.3) % | 0.0(±0.0) % and 0% | 0.0(±0.0) % and 0% | 0.0(±0.0) % and 0% | 0.0(±0.0) % and 0% | 9.1% | 12.9% | 43.9(±1.3) % | 44.2(±1.0) % | 56.3(±1.0) % | ED20 (L929 fibroblasts; 24h exposure): 0.47±0.03%; ED50 (L929 fibroblasts; 24h exposure): 0.66±0.03%; ED80 (L929 fibroblasts; 24h exposure): 0.86±0.09%; ED20 (L929 fibroblasts; 48h exposure): 0.30±0.02%; ED50 (L929 fibroblasts; 48h exposure): 0.50±0.01%; ED80 (L929 fibroblasts; 48h exposure): 0.71±0.01%; MIC (%) (S. aureus ATCC 6538): 15%; MBC (%) (E. coli ATCC 8739): 15%; MBC (%) (C. albicans ATCC 10231; C. albicans ATCC 10231): 15%; Inhibition of the Lepidium sativum seeds germination (ISG, %) [1, 11]: 3.5%; Inhibition of the root growth in pregerminated Lepidium sativum seeds (IRG, %) [2, 13]: 68.3%
NC(CCC(=O)O)C(=O)O.OCCN(CCO)CCO (centres unmarked) [[TEA][Glu]] | 7.50 | 15 | 0.0(±0.0) % | 0.0(±0.0) % | 1.8(±0.5) % | 3.6(±0.8) % | 5.4(±1.3) % | 8.9(±0.8) % | 10.7(±1.3) % | 10.7(±1.3) % | 21.4(±0.5) % | 0.0(±0.0) % and 0% | 0.0(±0.0) % and 0% | 4.0(±2.4) % | 4.9(±2.7) % | 5.8% | 21% | 44.5(±1.8) % | 61.4(±1.0) % | 79.4(±0.8) % | MIC (%) (S. aureus ATCC 6538): 15%; MBC (%) (E. coli ATCC 8739): 15%; Inhibition of the Lepidium sativum seeds germination (ISG, %) [1, 11]: 14.3%; Inhibition of the Lepidium sativum seeds germination (ISG, %) [1, 13]: 33.9%; Inhibition of the root growth in pregerminated Lepidium sativum seeds (IRG, %) [2, 9]: 36.3(±2.2) %; Inhibition of the root growth in pregerminated Lepidium sativum seeds (IRG, %) [2, 13]: 82.4(±0.5) %
CC(O)C(N)C(=O)O.OCCN(CCO)CCO [[TEA][Thr]] | 7.50 | 3.75 | 0.0(±0.0) % | 3.8(±0.1) % | 6.7(±0.8) % | 11.3(±1.7) % | 15.1(±0.8) % | 16.8(±0.9) % | 18.9(±1.7) % | 21.7(±0.8) % | 45.3(±2.1) % | 0.0(±0.0) % | 17.7(±2.3) % | 19.7(±2.4) % | 21.8(±1.9) % | 37.8% | 66.6(±1.3) % | 80.3(±0.9) % | 88.0(±0.8) % | 92.7(±0.6) % | ED20 (L929 fibroblasts; 24h exposure): 0.40±0.09%; ED50 (L929 fibroblasts; 24h exposure): 0.57±0.03%; ED80 (L929 fibroblasts; 24h exposure): 0.73±0.14%; ED20 (L929 fibroblasts; 48h exposure): 0.26±0.03%; ED50 (L929 fibroblasts; 48h exposure): 0.38±0.02%; ED80 (L929 fibroblasts; 48h exposure): 0.50±0.03%; Inhibition of the root growth in pregerminated Lepidium sativum seeds (IRG, %) [2, 9]: 73.7(±1.0) %; Inhibition of the root growth in pregerminated Lepidium sativum seeds (IRG, %) [2, 13]: 96.2(±0.5) %
